Assay results published in publication PMC11639629, “Synthesis and Biological Evaluation of Deoxycyclophellitols as Human Retaining β‐Glucosidase Inhibitors” (Chemistry (Weinheim an Der Bergstrasse, Germany), 2024).

Legend:
GBA2 = target: T1, GBA2 (Homo sapiens, UniProt Q9HCG7)
T1 sequence (Q9HCG7 1-927): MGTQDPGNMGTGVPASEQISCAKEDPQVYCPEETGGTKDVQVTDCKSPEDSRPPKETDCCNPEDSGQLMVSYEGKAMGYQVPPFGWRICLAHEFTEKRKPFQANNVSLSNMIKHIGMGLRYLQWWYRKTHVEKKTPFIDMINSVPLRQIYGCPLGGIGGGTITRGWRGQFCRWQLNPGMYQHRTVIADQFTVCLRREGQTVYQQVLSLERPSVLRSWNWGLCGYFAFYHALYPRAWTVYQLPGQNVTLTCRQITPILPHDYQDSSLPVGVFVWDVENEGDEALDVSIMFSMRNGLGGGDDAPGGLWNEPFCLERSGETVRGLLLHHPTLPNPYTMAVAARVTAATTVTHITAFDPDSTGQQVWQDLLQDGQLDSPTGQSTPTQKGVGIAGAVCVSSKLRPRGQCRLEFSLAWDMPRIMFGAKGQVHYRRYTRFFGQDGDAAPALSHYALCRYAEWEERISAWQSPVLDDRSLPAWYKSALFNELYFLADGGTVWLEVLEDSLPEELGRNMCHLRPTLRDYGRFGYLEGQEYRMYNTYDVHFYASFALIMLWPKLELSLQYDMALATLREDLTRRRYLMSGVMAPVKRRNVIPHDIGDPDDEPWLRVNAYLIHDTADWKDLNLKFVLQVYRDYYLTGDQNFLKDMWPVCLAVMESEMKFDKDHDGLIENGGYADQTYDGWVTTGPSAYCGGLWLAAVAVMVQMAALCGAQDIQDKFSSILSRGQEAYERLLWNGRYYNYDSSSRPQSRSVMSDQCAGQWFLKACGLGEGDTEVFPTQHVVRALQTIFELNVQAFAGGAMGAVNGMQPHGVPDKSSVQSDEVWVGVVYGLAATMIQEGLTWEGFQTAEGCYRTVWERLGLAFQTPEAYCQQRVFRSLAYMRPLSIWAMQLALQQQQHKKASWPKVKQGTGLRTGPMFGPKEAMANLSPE
Procedure: (§1) Next, all new compounds were screened on their GBA1/GBA2/GBA3 inhibitory potency in a fluorogenic substrate assay (enzyme‐mediated hydrolysis of the fluorogenic substrate, 4‐methylumbelliferyl β‐D‐glucopyranoside; 4‐MU‐β‐D‐Glu). […] The IC50 values were determined after incubation of each individual compound with either recombinant human GBA1 (rhGBA1) or lysates of HEK293T cells overexpressing GBA2 or GBA3.
(§2) All assays were performed in 96-well plates (Greiner, black, flat-bottomed) at 37 °C. For GBA1, 3.5 ng of rhGBA1 (Imiglucerase,
(§3) Sanofi Genzyme) was dissolved in 12.5 μL McIlvaine buffer (150 mM citric acid-Na2HPO4, pH 5.2), supplemented with 0.1%
(§4) (v/v) Triton X-100, and 0.2% (w/v) sodium taurocholate, 0.1% (w/v) bovine serum albumin (BSA). Lysates of GBA1/GBA2 KO
(§5) HEK293T cells overexpressing GBA2 or GBA3 were prepared by sonication on ice with Polytron PT 1300D son icator
(§6) (Kinematica) in potassium phosphate buffer (25 mM K2HPO4/KH2PO4, pH 6.5, supplemented with 0.1% (v/v) Triton X-100 and protease inhibitor cocktail (EDTA-free, Roche)). The lysates were diluted to 12.5 μL in McIlvaine buffer (150 mM, pH 5.8 for
(§7) GBA2 or pH 6.0 for GBA3) supplemented with 0.1% (w/v) bovine serum albumin (BSA). The enzymes were incubated with 12.5
(§8) μL solution of inhibitors in McIlvaine buffer (150 mM, pH appropriate for each enzyme, final concentration 1% DMSO) at 37 °C
(§9) for 30 minutes (-configured aziridines and ABP 3) or 3 hours (epoxides and -configured aziridines). This was followed by
(§10) incubation of the samples with 100 μL of fluorogenic substrate mixtures for 30 minutes. The substrate mixtures diluted in
(§11) McIlvaine buffer (supplemented with 0.1% (w/v) BSA) at optimal pH for each enzyme were as follows: GBA1, 3.75 mM 4-MU-
(§12) -D-glucopyranoside (Glycosynth) at pH 5.2, supplemented with 0.2% (w/v) sodium taurocholate, 0.1% (v/v) Triton X-100, 0.1%
(§13) (w/v) bovine serum albumin (BSA); GBA2, 4-MU--D-glucopyranoside (3.75 mM) at pH 5.8; GBA3, 4-MU--D-glucopyranoside
(§14) (3.75 mM) at pH 6.0. After stopping the enzyme reaction with 200 μL 1 M NaOH-glycine (pH 10.3), 4-methylumbelliferone
(§15) fluorescence was measured with a fluorimeter LS55 (Perkin Elmer) with λEX 366 nm and λEM 445 nm. Enzyme activities were
(§16) determined by subtraction of background (measured for incubations without enzyme), normalized with enzyme activity of the
(§17) control sample (vehicle incubation) and curve-fitted to inhibitor concentrations using GraphPad Prism 9.0 software by the
(§18) [inhibitor] vs. response - variable slope (four parameters) method to determine IC 50 values.
(§19) values from triplicate or duplicate experiments (n = 3 biological replicates) and error ranges indicate standard deviation (SD).

GBA3 = target: T2, GBA3 (Homo sapiens, UniProt Q9H227)
T2 sequence (Q9H227 1-469): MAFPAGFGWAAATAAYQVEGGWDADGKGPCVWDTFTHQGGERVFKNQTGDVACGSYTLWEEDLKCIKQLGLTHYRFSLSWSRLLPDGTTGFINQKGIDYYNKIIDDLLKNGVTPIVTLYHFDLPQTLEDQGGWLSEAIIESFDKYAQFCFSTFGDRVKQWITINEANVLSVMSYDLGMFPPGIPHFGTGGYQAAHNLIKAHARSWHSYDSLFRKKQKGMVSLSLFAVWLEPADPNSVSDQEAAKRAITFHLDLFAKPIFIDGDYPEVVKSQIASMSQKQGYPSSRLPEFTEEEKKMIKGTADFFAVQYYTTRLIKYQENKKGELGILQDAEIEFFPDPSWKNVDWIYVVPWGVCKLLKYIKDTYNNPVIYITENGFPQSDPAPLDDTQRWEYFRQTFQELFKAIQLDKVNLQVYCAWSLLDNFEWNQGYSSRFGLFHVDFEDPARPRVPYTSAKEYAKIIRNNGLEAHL
Procedure: as §1, §2, §3, §4, §5, §6, §7, §8, §9, §10, §11, §12, §13, §14, §15, §16, §17, §18, §19

[1] = test system: endogenous GBA1 and overexpressed human GBA2 and GBA3; assay: ABP labeling (ABPP) in lysates of GBA2/GBA3 overexpressing HEK293T cells, selectivity pattern; assay type: binding; conditions: pH 6.0, 30 min
Procedure: As a negative control, lysates of HEK293T cells with knocked‐out (KO) expression of GBA1 and GBA2 were incubated with a high concentration of each ABP. The observed selectivity patterns of most compounds were in line with the results of the fluorogenic substrate assay except for 50, which labeled GBA1 less potently than expected. […] For instance, besides labeling GBA2 and GBA3 (104.6 kDa and 53.6 kDa respectively), ABP 5 labels three major off‐target proteins (~45 kDa, ~55 kDa, and ~65 kDa), and these bands appear also in the experiments with the other deoxygenated ABPs (Figure 3B). Possibly, the deoxygenated ABPs are more hydrophobic compared to ABPs 1 and 3, causing them to more readily associate with hydrophobic protein patches and subsequently engage in reactions.
described previously.6,16
protease inhibitor cocktail (EDTA-free, Roche)).
The enzymes were incubated with 12.5
The substrate mixtures diluted in
with BODIPY fluorescent ABP 2.

[2] = target: T3, recombinant human GBA1 (rhGBA1) (Homo sapiens, UniProt P04062, R534H); assay: fluorogenic substrate assay (4-MU-β-D-Glu hydrolysis), rhGBA1
T3 sequence (P04062 40-536 R534H): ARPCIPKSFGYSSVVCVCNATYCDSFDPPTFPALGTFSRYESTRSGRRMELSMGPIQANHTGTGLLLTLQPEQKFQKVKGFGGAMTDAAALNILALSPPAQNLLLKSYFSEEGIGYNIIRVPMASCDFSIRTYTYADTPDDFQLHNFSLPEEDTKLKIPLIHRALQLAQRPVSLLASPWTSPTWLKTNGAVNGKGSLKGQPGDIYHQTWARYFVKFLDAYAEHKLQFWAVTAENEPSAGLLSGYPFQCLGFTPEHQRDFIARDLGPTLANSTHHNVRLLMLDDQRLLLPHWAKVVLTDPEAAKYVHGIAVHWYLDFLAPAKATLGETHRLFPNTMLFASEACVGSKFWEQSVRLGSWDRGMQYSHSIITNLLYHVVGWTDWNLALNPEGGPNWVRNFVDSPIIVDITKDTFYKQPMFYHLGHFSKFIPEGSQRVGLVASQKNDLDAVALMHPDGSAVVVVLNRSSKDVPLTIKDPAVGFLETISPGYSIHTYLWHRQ
Procedure: as §1, §2, §3, §4, §5, §6, §7, §8, §9, §10, §11, §12, §13, §14, §15, §16, §17, §18, §19

Structure (SMILES)	IC50 (GBA2) [nM]	IC50 (GBA3) [nM]	target glucosidases labeled by the ABP [1]	IC50 [2] [nM]
CN1/C(=C/C=C/C=C/C2=[N+](CCCCCC(=O)NCc3cn(CCCCCCCCN4[C@@H]5[C@H](CO)[C@@H](O)[C@H](O)[C@@H](O)[C@@H]54)nn3)c3ccccc3C2(C)C)C(C)(C)c2ccccc21 (stereo partly drawn) [Compound 1]	145 ± 26	31 ± 5	modifies all three GBAs	0.54 ± 0.21
CN1/C(=C/C=C/C=C/C2=[N+](CCCCCC(=O)NCc3cn(C[C@@H]4[C@@H](O)[C@H](O)[C@@H](O)[C@@H]5O[C@H]45)nn3)c3ccccc3C2(C)C)C(C)(C)c2ccccc21 [Compound 3]	> 15000	> 15000	–	42 ± 4
CN1/C(=C/C=C/C=C/C2=[N+](CCCCCC(=O)NCc3cn(CCCCCCCCN4[C@@H]5[C@H](CO)C[C@H](O)[C@@H](O)[C@@H]54)nn3)c3ccccc3C2(C)C)C(C)(C)c2ccccc21 (stereo partly drawn) [Compound 4]	240 ± 30	260 ± 60	label all three target glucosidases	260 ± 10
CN1/C(=C/C=C/C=C/C2=[N+](CCCCCC(=O)NCc3cn(CCCCCCCCN4[C@@H]5[C@H](CO)C[C@H](O)C[C@@H]54)nn3)c3ccccc3C2(C)C)C(C)(C)c2ccccc21 (stereo partly drawn) [Compound 5]	230 ± 10	1230 ± 80	GBA2 and, to a lesser extent, GBA3	32000 ± 3000
